# Source: publication PMC3072440 (Chemical research in toxicology, 2010)
# Where two headings read alike, the source gives them in different places.
# How the values were obtained:
# human P450 2C9 [1] = target: T1, human P450 2C9 (Homo sapiens, UniProt P11712); experiment: Inhibition of P450 2C9-dependent flurbiprofen 4’-hydroxylation
# human P450 1A1 = target: T2, human P450 1A1 (Homo sapiens, UniProt P04798); experiment: Inhibition of P450 1A1-dependent EROD activity; format: biochemical
# T2 sequence (P04798 1-512): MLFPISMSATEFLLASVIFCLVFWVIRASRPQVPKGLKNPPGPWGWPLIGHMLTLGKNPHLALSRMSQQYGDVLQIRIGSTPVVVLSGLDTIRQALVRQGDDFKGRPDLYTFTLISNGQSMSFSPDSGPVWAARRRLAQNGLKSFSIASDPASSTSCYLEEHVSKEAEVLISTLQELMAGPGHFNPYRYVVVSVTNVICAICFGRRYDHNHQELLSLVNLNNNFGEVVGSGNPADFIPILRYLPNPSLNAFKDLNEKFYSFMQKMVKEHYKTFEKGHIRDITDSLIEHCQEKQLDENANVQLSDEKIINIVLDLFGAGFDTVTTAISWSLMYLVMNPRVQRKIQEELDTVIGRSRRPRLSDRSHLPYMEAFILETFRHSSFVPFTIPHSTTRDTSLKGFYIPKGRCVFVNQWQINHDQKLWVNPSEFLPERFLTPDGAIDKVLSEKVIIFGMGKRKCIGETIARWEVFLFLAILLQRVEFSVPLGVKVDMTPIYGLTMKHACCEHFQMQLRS
# human P450 3A4 [2] = target: T3, human P450 3A4 (Homo sapiens, UniProt P08684); experiment: Inhibition of P450 3A4-dependent midazolam 4-hydroxylation
# human P450 1B1 [3] = target: T4, human P450 1B1 (Homo sapiens, UniProt Q16678); experiment: Spectral binding titration with purified P450 1B1
# T4 sequence (Q16678 1-543): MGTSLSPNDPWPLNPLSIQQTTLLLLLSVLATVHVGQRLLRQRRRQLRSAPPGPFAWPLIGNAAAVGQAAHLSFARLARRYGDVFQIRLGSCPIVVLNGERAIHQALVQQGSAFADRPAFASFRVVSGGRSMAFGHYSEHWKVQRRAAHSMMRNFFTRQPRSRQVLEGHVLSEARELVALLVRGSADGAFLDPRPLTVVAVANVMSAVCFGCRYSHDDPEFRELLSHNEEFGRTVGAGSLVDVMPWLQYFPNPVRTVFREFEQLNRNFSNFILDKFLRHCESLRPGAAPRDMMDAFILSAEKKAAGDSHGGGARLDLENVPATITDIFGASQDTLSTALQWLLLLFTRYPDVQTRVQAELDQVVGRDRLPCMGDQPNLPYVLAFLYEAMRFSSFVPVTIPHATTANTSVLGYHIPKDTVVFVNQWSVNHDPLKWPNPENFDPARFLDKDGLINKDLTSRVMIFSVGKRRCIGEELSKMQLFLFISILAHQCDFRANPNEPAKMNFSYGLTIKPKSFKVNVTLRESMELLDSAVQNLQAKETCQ
# human P450 3A4 [4] = target: T3, human P450 3A4; experiment: Spectral binding titration with purified P450 3A4; conditions: for spectral change / Type I binding spectra with P450 3A4, in words: decreases in α and β bands monitored, up to 100 µM
# human P450 2C9 [5] = target: T1, human P450 2C9
# human P450 1B1 [6] = target: T4, human P450 1B1; experiment: Inhibition of P450 1B1-dependent EROD activity; format: biochemical
# human P450 1A2 [7] = target: T5, human P450 1A2 (Homo sapiens, UniProt P05177)
# T5 sequence (P05177 1-516): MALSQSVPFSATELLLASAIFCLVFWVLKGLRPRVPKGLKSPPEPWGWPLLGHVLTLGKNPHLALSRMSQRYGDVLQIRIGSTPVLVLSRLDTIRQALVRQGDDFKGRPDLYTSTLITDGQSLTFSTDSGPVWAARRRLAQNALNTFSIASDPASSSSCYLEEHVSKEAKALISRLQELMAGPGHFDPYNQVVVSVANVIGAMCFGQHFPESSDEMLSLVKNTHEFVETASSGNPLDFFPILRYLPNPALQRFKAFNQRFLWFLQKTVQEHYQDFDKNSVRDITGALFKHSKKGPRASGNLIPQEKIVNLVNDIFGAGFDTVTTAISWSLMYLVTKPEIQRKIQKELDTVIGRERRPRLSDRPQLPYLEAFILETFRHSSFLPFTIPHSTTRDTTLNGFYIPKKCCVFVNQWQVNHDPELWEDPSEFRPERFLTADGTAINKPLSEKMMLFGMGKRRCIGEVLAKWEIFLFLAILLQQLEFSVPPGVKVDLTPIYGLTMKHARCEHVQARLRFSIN
# human P450 1A2 [8] = target: T5, human P450 1A2; experiment: Inhibition of P450 1A2-dependent EROD activity
# human P450 2C9 [9] = target: T1, human P450 2C9; experiment: Spectral binding titration with purified P450 2C9; conditions: concentrations up to 100 µM; results not shown
# human P450 3A4 [10] = target: T3, human P450 3A4; experiment: Effect on P450 3A4-catalyzed midazolam 1’-hydroxylation
# T1 sequence (P11712 whole entry): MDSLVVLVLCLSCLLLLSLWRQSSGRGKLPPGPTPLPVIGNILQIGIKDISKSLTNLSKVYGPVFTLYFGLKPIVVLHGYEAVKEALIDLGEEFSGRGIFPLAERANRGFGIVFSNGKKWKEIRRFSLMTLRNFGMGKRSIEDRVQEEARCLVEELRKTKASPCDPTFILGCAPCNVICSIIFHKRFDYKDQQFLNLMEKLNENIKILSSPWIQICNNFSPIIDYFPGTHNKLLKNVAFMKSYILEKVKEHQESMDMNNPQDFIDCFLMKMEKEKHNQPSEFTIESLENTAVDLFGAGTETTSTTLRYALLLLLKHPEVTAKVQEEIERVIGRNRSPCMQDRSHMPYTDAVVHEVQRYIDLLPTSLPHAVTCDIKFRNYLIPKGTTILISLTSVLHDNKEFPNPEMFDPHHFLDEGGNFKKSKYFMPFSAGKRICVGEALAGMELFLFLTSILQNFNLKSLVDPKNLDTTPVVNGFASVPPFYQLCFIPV
# T3 sequence (P08684 whole entry): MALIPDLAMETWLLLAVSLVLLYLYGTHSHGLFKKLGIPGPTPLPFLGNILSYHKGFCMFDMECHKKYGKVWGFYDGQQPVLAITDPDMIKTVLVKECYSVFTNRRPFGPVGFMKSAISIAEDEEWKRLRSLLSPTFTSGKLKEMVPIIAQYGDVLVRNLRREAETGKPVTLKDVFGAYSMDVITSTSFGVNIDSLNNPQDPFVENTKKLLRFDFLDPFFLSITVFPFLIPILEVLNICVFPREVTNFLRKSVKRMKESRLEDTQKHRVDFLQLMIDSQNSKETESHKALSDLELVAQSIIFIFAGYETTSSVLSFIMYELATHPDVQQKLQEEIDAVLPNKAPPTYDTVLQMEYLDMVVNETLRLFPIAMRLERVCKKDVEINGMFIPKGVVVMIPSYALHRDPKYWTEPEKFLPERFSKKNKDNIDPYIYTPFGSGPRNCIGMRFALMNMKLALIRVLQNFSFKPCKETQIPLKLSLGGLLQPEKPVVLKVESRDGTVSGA
smiles,measurement,setting,value
"COc1ccccc1-c1cc(=O)c2c(O)cc(O)cc2o1 [2’M57DHF, 2’-methoxy-5,7-dihydroxyflavone]","inhibition of P450 2C9 flurbiprofen 4’-hydroxylation, in words",human P450 2C9 [1],strong inhibitors
same,IC50,human P450 1A1,1.4 µM
same,IC50,human P450 3A4 [2],2 µM
"COc1ccccc1-c1cc(=O)c2ccc(O)c(O)c2o1 [2’M78DHF, 2’-methoxy-7,8-dihydroxyflavone]","binding spectra with P450 1B1, in words",human P450 1B1 [3],no binding spectra
same,"binding spectra with P450 1B1, in words",human P450 1B1 [3]; listed as 2M78DHF,did not show spectra
"COc1ccccc1-c1cc(=O)c2ccccc2o1 [2’MF, 2’-Methoxyflavone]","inhibition of P450 3A4 midazolam 4-hydroxylation, in words",human P450 3A4 [2],not very effective inhibitors
same,"spectral change / Type I binding spectra with P450 3A4, in words",human P450 3A4 [4],induced spectral changes
"COc1ccc(-c2cc(=O)c3c(O)cc(O)cc3o2)cc1OC [3’4’DM57DHF, 3’4’-dimethoxy-5,7-dihydroxyflavone]",IC50,human P450 1A1,0.072 ± 0.011 µM
same,IC50 of P450 3A4 fold higher than that for P450 1B1,human P450 3A4 [2]; ratio IC50 3A4 / IC50 1B1,2000 fold
same,IC50 of P450 3A4 fold higher than that of P450 2C9,human P450 3A4 [2]; ratio IC50 3A4 / IC50 2C9,43 fold
same,IC50,human P450 2C9 [5],0.88 ± 0.21 µM
same,"inhibition of P450 2C9 flurbiprofen 4’-hydroxylation, in words",human P450 2C9 [5],strong inhibitors
same,IC50,"human P450 1B1 [6]; read-out: inhibition of substrate oxidation by P450s (IC50), P450 1B1, 7-ethoxyresorufin O-deethylation, 2.5 µM substrate, bacterial membranes, means ± SD",0.019 ± 0.003 µM
same,IC50,human P450 1A2 [7],0.011 ± 0.003 µM
"COc1ccc(-c2cc(=O)c3ccc(O)c(O)c3o2)cc1OC [3’4’DM78DHF, 3’,4’-dimethoxy-7,8-dihydroxyflavone]",IC50,human P450 2C9 [1],25 ± 4.2 µM
same,IC50,human P450 1A1,41 ± 10 µM
same,IC50,human P450 3A4 [2],> 100 µM
same,"inhibition of P450 3A4 at 100 µM, in words",human P450 3A4 [2]; 100 µM concentration,not inhibitory
same,IC50,human P450 1B1 [6],> 100 µM
same,IC50,human P450 1A2 [8],> 100 µM
same,"inhibition of P450 1A2 at 100 µM, in words",human P450 1A2 [8]; 100 µM concentration,did not inhibit
"COc1ccc(-c2cc(=O)c3ccccc3o2)cc1OC [3’4’DMF, 3’,4’-dimethoxyflavone]","inhibition of P450 3A4 midazolam 4-hydroxylation, in words",human P450 3A4 [2],not very effective inhibitors
"COc1cccc(-c2cc(=O)c3ccccc3o2)c1 [3’MF, 3’-methoxyflavone]","inhibition of P450 3A4 midazolam 4-hydroxylation, in words",human P450 3A4 [2],not very effective inhibitors
same,"spectral change / Type I binding spectra with P450 3A4, in words",human P450 3A4 [4],induced spectral changes
"C[C@@H]1O[C@@H](O[C@H]2[C@H](Oc3cc(O)c4c(c3)O[C@H](c3ccc(O)cc3)CC4=O)O[C@H](CO)[C@@H](O)[C@@H]2O)[C@H](O)[C@H](O)[C@H]1O [4’57THFvaG, 4’,5,7-trihydroxyflavanone glycoside]","inhibition of P450 1B1 EROD, in words",human P450 1B1 [6],weak inhibitor
"COc1ccc(-c2cc(=O)c3c(O)cc(O)cc3o2)cc1 [4’M57DHF, 4’-methoxy-5,7-dihydroxyflavone]",IC50,human P450 2C9 [1],0.65 ± 0.13 µM
same,"inhibition of P450 2C9 flurbiprofen 4’-hydroxylation, in words",human P450 2C9 [1],strong inhibitors
same,"inhibition of P450 3A4 midazolam 4-hydroxylation, in words",human P450 3A4 [2],significantly inhibited
same,"spectral changes with P450 2C9, in words",human P450 2C9 [9],did not induce spectral changes
same,"spectral change / Type I binding spectra with P450 3A4, in words",human P450 3A4 [4],induced spectral changes
same,"effect on formation of 1’-hydroxymidazolam by P450 3A4, in words",human P450 3A4 [10],slightly activated
"COc1ccc(-c2coc3cc(O)cc(O)c3c2=O)cc1 [4’M57DHIsoF, 4’-methoxy-5,7-dihydroxyisoflavone]",IC50,human P450 1B1 [6],0.7 µM
same,pattern of inhibition of P450 1B1 (kinetic analysis),"human P450 1B1 [6]; 357THF 0.02 µM, 4’57THFva 8.0 µM, 4’M57DHisoF 8.0 µM, results not shown",mixed-type
same,"spectral changes with P450 2C9, in words",human P450 2C9 [9],did not induce spectral changes
"COc1ccc(-c2cc(=O)c3ccccc3o2)cc1 [4’MF, 4’-methoxyflavone]","inhibition of P450 3A4 midazolam 4-hydroxylation, in words",human P450 3A4 [2],not very effective inhibitors
same,"spectral change / Type I binding spectra with P450 3A4, in words",human P450 3A4 [4],induced spectral changes
"O=c1cc(-c2ccccc2)oc2cccc(O)c12 [5HF, 5-hydroxyflavone]",IC50,human P450 3A4 [2],> 100 µM
"O=c1cc(-c2ccccc2)oc2cc(O)ccc12 [7HF, 7-hydroxyflavone]","inhibition of P450 2C9 flurbiprofen 4’-hydroxylation, in words",human P450 2C9 [1],strong inhibitors
same,IC50,human P450 3A4 [2],> 100 µM
same,"spectral changes with P450 2C9, in words",human P450 2C9 [9],did not induce spectral changes
"O=c1c(O)c(-c2ccc(O)cc2)oc2cc(O)cc(O)c12 [34’57TetraHF, 3,4’,5,7-tetrahydroxyflavone]","spectral changes with P450 2C9, in words",human P450 2C9 [9],did not induce spectral changes
"O=c1cc(-c2ccccc2)oc2cc(O)cc(O)c12 [57DHF, 5,7-dihydroxyflavone]",IC50,human P450 2C9 [1],0.8 ± 0.14 µM
same,"inhibition of P450 2C9 flurbiprofen 4’-hydroxylation, in words",human P450 2C9 [5],strong inhibitors
"O=c1c(O)c(-c2ccccc2)oc2cc(O)cc(O)c12 [357THF, 3,5,7-trihydroxyflavone]",IC50,human P450 2C9 [1],0.2 ± 0.03 µM
same,"inhibition of P450 2C9 flurbiprofen 4’-hydroxylation, in words",human P450 2C9 [1],strong inhibitors
same,IC50,human P450 3A4 [2],2.3 ± 0.3 µM
same,"inhibition of P450 3A4 midazolam 4-hydroxylation, in words",human P450 3A4 [2],significantly inhibited
same,"spectral changes with P450 2C9, in words",human P450 2C9 [9],did not induce spectral changes
same,"spectral change / Type I binding spectra with P450 3A4, in words",human P450 3A4 [4],induced spectral changes
same,"effect on formation of 1’-hydroxymidazolam by P450 3A4, in words",human P450 3A4 [10],slightly activated
"C#CCOc1ccccc1-c1cc(=O)c2ccc3ccccc3c2o1 [ANF2’PE, α-naphthoflavone 2’-propargyl ether]",IC50,human P450 1A2 [7],0.24 µM
"C#CCOc1ccc(-c2cc(=O)c3ccc4ccccc4c3o2)cc1 [ANF4’PE, α-naphthoflavone 4’-propargyl ether]",IC50,human P450 1A2 [7],0.1 µM
"O=c1cc(-c2ccccc2)oc2c1ccc1ccccc12 [ANF, α-naphthoflavone]","inhibition of P450 1A1 EROD, in words",human P450 1A1,strongly inhibited
same,IC50,human P450 3A4 [2],18 µM
same,"spectral changes with P450 2C9, in words",human P450 2C9 [9],did not induce spectral changes
"C#CCOc1ccccc1-c1cc(=O)c2c(ccc3ccccc32)o1 [BNF2’PE, β–naphthoflavone 2’-propargyl ether]","inhibition of P450 1A2 EROD, in words",human P450 1A2 [7],only weakly
"C#CCOc1ccc(-c2cc(=O)c3c(ccc4ccccc43)o2)cc1 [BNF4’PE, β–naphthoflavone 4’-propargyl ether]","inhibition of P450 1A2 EROD, in words",human P450 1A2 [7],only weakly
"O=c1cc(-c2ccccc2)oc2ccc3ccccc3c12 [BNF, β–naphthoflavone]","inhibition of P450 1A1 EROD, in words",human P450 1A1,strongly inhibited
same,"inhibition of P450 3A4 midazolam 4-hydroxylation, in words",human P450 3A4 [2],not active inhibitors
same,IC50,human P450 1B1 [6],0.017 µM
same,"spectral changes with P450 2C9, in words",human P450 2C9 [9],did not induce spectral changes
same,"inhibition of P450 1A2 EROD, in words",human P450 1A2 [8],only weakly
O=c1cc(-c2ccccc2)oc2ccccc12 [flavone],IC50,human P450 2C9 [1],14 ± 1.2 µM
same,IC50,human P450 1A1,0.98 ± 0.21 µM
same,"inhibition of P450 3A4 midazolam 4-hydroxylation, in words",human P450 3A4 [2],inhibited the formation of 4-hydroxymidazolam
same,"spectral changes with P450 2C9, in words",human P450 2C9 [9],did not induce spectral changes
same,"spectral change / Type I binding spectra with P450 3A4, in words",human P450 3A4 [4],Type I spectral change
same,"ΔAmax, P450 3A4, from difference spectra (Soret band)",human P450 3A4 [4]; purified P450 3A4,0.12 ± 0.02
same,"binding spectra with P450 1B1, in words",human P450 1B1 [3],Reverse Type I binding spectra
same,"effect on formation of 1’-hydroxymidazolam by P450 3A4, in words",human P450 3A4 [10],enhanced the formation of 1’-hydroxymidazolam
same,IC50,human P450 1A2 [8],0.13 ± 0.03 µM
CC(C(=O)O)c1ccc(-c2ccccc2)c(F)c1 (stereo not drawn) [flurbiprofen],"spectral changes with P450 2C9, in words",human P450 2C9 [9],Type I spectra
